Measurements: PubChem BioAssay (NCI)
“And” between values parts separate entries of the source, which are not always exact repeats. Equal values may be shown once.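 These data come from cells grown in 96-well plates and exposed to compound for 48 hours at five concentrations. The concentration for 50% growth inhibition is given as GI50. The concentration for full growth arrest is given as TGI.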

Key:
Test in all cases: NCI-60 cell line screen, 48 h
[1] = tested on: M14 melanoma
[2] = tested on: HCC-2998 colon
[3] = tested on: SW-620 colon
[4] = tested on: CCRF-CEM leukemia
[5] = tested on: UACC-62 melanoma
[6] = tested on: ACHN renal
[7] = tested on: HT29 colon
[8] = tested on: SR leukemia
[9] = tested on: MOLT-4 leukemia
[10] = tested on: SK-OV-3 ovarian

| SMILES | TGI [1] | TGI [2] | TGI [3] [µM] | TGI [4] | TGI [5] | TGI [6] [µM] | TGI [7] | TGI [8] | TGI [9] | TGI [10] [µM] | GI50 [1] | GI50 [2] [µM] | GI50 [5] [µM] | GI50 [3] [µM] | GI50 [4] [µM] | GI50 [6] | GI50 [7] [µM] | GI50 [8] [µM] | GI50 [9] [µM] | GI50 [10] [µM] |
| --- | --- | --- | --- | --- | --- | --- | --- | --- | --- | --- | --- | --- | --- | --- | --- | --- | --- | --- | --- | --- |
| O=C(Cc1nc2ccccc2s1)C(=O)Nc1cccc(C(F)(F)F)c1 | > 100 µM | > 100 µM | > 100 | > 100 µM | > 100 µM | > 100 | > 100 µM | > 100 µM | > 100 µM | > 100 |  |  |  |  |  |  |  |  |  |  |
| CCCC(=O)Nc1cc(/C=C/C(=O)N2C[C@@H]3C[C@]34C2=CC(=O)c2[nH]cc(C)c24)n(C)c1 | 1.55 µM and 0.22 µM | 0.687 µM and 0.37 µM | 25 | 0.131 µM and 0.267 µM | 0.352 µM and 0.222 µM | 0.796 | 2.77 µM | 0.0709 µM | 0.134 µM and 0.515 µM | 7.97 | 0.0672 µM | 0.114 | 0.0972 |  |  |  |  |  |  |  |
| CCCCn1c(-c2ccccc2)cs/c1=N\NC(=O)Cn1c(C)nc2ccccc21 | > 100 µM | > 100 µM | > 100 | 99.4 µM | > 100 µM | > 100 | > 100 µM | 50.9 µM | 57.4 µM | > 100 |  |  |  |  |  |  |  |  |  |  |
| CC(C)(C)OC(=O)NCCCCCCCCCCCCn1c2c(c3ccccc3c1=O)C(=O)c1ccccc1-2 | > 100 µM | > 100 µM | > 100 | > 100 µM | > 100 µM | 54.7 | > 100 µM | > 100 µM | > 100 µM | 74.1 | > 100 µM | > 100 | 27.4 | > 100 | 43.3 | 21.1 µM | > 100 | 35 | 49.4 | 22.9 |
| CCNC(=O)COc1ccc(Cl)c(C)c1 | > 100 µM | > 100 µM | > 100 | > 100 µM | > 100 µM | > 100 | > 100 µM | > 100 µM | > 100 µM | > 100 |  |  |  |  |  |  |  |  |  |  |
| O=C(NC1=C(Cl)C(=O)c2ccccc2C1=O)C(=O)c1c(O)c2ccccc2oc1=O | 4.4 µM | 20.4 µM | > 40.9 | > 30.7 µM | 4.58 µM | 14 | 12.8 µM | 80.6 µM | 18 µM | 27.4 |  |  |  |  |  |  |  |  |  |  |
| C/C(=N/NC(N)=S)C(CN1CCOCC1)C(C1=C(O)c2ccccc2OC1)c1ccccc1 (stereo not drawn) | > 100 µM | > 100 µM | > 100 | > 100 µM | > 100 µM | > 100 | > 100 µM | > 100 µM | > 100 µM | > 100 |  |  |  |  |  |  |  |  |  |  |
| Cn1cc(-c2csc(-c3ccc(Cl)cc3)n2)c2cccnc21 | 24.8 µM | 28.8 µM | 29.3 | 51.9 µM | 29.8 µM | 29.2 | 25.9 µM | 59.6 µM | 38.6 µM | 39.2 | 12 µM | 14.6 | 10.5 | 15 | 18.4 | 14.1 µM | 13.2 | 13.3 | 12.4 | 15.9 |
| Cc1c2cc[n+](C)cc2c(C)c2c1[nH]c1ccc(OCC(F)(F)F)cc12 | > 100 µM | 34.5 µM and > 100 µM | > 100 | > 100 µM | > 100 µM | > 100 | 8.14 µM and > 55.1 µM | 23 µM and > 52.1 µM | 11.1 µM and > 55.9 µM | > 100 | 11.6 µM and > 94.3 µM |  |  |  |  | 12 µM and > 100 µM |  |  |  |  |
| COc1ccc(/C=C(\C#N)c2cc(OC)c(OC)c(OC)c2)cc1 | > 100 µM | 1.25 µM | > 100 | > 43.5 µM | > 100 µM | > 100 | 17.8 µM |  | 6.85 µM | 0.221 | 0.0269 µM | 0.0283 | 0.0103 | 0.0282 | 0.0361 | 0.0478 µM | 0.0251 | < 0.01 | 0.0391 | < 0.0138 |
| COc1ccc(C(=O)c2ccccc2)c(O)c1 | > 100 µM | > 100 µM | > 100 | > 100 µM | > 100 µM | > 100 | > 100 µM | > 100 µM | > 100 µM | > 100 | 81.7 µM | > 100 | 57.1 | > 100 | > 100 | > 100 µM | 43.8 | 45.7 | 70.6 | > 100 |
| OC[C@H]1N[C@H](CO)[C@@H](O)[C@H]1O | > 100 µM | > 100 µM | > 100 | > 100 µM | > 100 µM | > 100 | > 100 µM | > 100 µM | > 100 µM | > 100 |  |  |  |  |  |  |  |  |  |  |
| CC(=O)c1nc(-c2ccc(C[C@@H](CNC(=O)CN(C)C)NC(=O)c3ccc(OC(C)C)c(Cl)c3)cc2)cn1C | 2.54 µM | 21.8 µM | 20.4 | 34.7 µM | 19.1 µM | 20.2 | 12.5 µM | 12.6 µM | 15 µM | 16.1 | 0.0317 µM | 0.134 | 0.0587 | 0.0663 | 0.0447 | 1.01 µM | 0.024 | 0.0506 | 0.0406 | 0.0346 |
| COc1cc(C=NCC(=O)CSC(c2ccccc2)c2ccccc2)ccc1O | 25.9 µM | 16.5 µM | 31.4 | 50.9 µM | 27.5 µM | 31.8 | 28.6 µM | 25.3 µM | 31.8 µM | 17.2 | 13.2 µM | 3.6 | 13.6 | 15.5 | 8.42 | 12.5 µM | 15.3 | 8.27 | 9.05 | 3.58 |
| c1ccc(N2CCN(CCN3CCc4c([nH]c5ccccc45)C3c3cccnc3)CC2)cc1 (stereo not drawn) | > 100 µM | > 100 µM | > 100 | > 100 µM | > 100 µM | > 100 | > 100 µM | > 100 µM | > 100 µM | 95.2 |  |  |  |  |  |  |  |  |  |  |
| Cc1nc(C(=O)OCc2ccccc2)cc(OCc2ccccc2)c1C | 40.3 µM | 54.1 µM | 44.2 | 62.1 µM | 24.8 µM | 60.2 | 29.3 µM | 28.6 µM | 7.53 µM | > 100 | 19.8 µM | 20.5 | 11 | 17.8 | 20.5 | 20.9 µM | 13.1 |  | 0.517 | > 89 |
| COc1cccc(C=NC23CC4CC(CC(C4)C2)C3)c1 | > 100 µM | > 100 µM | > 100 | > 100 µM | > 100 µM | > 100 | > 100 µM | > 100 µM | > 100 µM | > 100 |  |  |  |  |  |  |  |  |  |  |
| O=c1cc(-c2ccccc2)oc2cc(OCCCCCCCCCCOc3ccc4c(=O)cc(-c5ccccc5)oc4c3)ccc12 | > 100 µM | > 100 µM | > 100 | > 100 µM | > 100 µM | > 100 | > 100 µM | > 100 µM | > 100 µM | > 100 |  |  |  |  |  |  |  |  |  |  |
| CCOC(=O)NN1C(=O)C(=P(c2ccccc2)(c2ccccc2)c2ccccc2)C(C(=O)OC)=C1C | > 100 µM | > 100 µM | > 100 | > 100 µM | > 100 µM | > 100 | > 100 µM | > 100 µM | > 100 µM | > 100 |  |  |  |  |  |  |  |  |  |  |
| O=S1(=O)CCC2=CC(C(F)(F)F)=CC(C(F)(F)F)=CN21 | 2.03 µM | 3.68 µM | 0.779 | 2.48 µM | 3.69 µM | 1.11 | 9.38 µM | 1.82 µM | 1.8 µM | 12.2 |  |  |  |  |  |  |  |  |  |  |
| COc1ccc2c(CN3CCCC[C@H]3O)cc3cc4c(cc3c2c1)OCO4 | 1.15 µM | 1.48 µM | 4.65 | 4.07 µM | 0.712 µM | 2.36 | 1.93 µM | 0.854 µM | 4.55 µM | 0.961 | 0.319 µM | 0.337 | 0.247 | 0.31 | 0.528 | 0.222 µM | 0.274 | 0.195 | 0.283 | 0.275 |
| CN(Cc1cnc2nc(N)nc(N)c2n1)c1c(Cl)cc(C(=O)NC(CCC(=O)O)C(=O)O)cc1Cl (stereo not drawn) | > 100 µM | > 100 µM | > 100 | > 100 µM | > 100 µM | > 100 | > 100 µM | > 100 µM | > 100 µM | > 100 | < 0.01 µM | < 0.0148 | < 0.0106 | < 0.01 | < 0.01 | < 0.01 µM | < 0.01 | < 0.01 | < 0.0201 | 0.807 |
| CCOC(=N)CC(=O)Nc1ccccc1CC | > 100 µM | > 100 µM | > 100 | > 100 µM | > 100 µM | > 100 | > 100 µM | > 100 µM | > 100 µM | > 100 |  |  |  |  |  |  |  |  |  |  |
| CCN(CC)c1ccc(/C=N/N=C(N)N)cc1 | 17 µM | 17.3 µM | 13.6 | 67.7 µM | 18.1 µM | 64.8 | 10.8 µM | 15 µM | 35.7 µM | 14 | 4 µM | 4.68 | 4.23 | 3.08 | 3.5 | 12.8 µM | 3.24 | 2.03 | 4.95 | 3.47 |
| Cc1nc(Nc2ccc(Cl)cc2)sc1C(=O)Nc1cccc2c(=O)[nH][nH]c(=O)c12 | 86.2 µM | > 100 µM | > 100 | 79.5 µM | 16.4 µM | > 100 | 41.6 µM | 64.8 µM | 50.4 µM | > 100 |  |  |  |  |  |  |  |  |  |  |
| COc1ccc(C2=NNC(c3sc(Cl)nc3Cl)C2)cc1 (stereo not drawn) | 16.8 µM | 33.9 µM | 23.6 | 15.7 µM | 21.1 µM | 20.6 | 18.6 µM | 19.7 µM | 22.1 µM | 51.4 | 3.47 µM | 16.9 | 6.94 | 4.87 | 2.75 | 4.58 µM | 5.12 | 2.54 | 3.58 | 13.2 |
| C/C(=N\NC(=S)N1CCCC1)c1ccccn1 | 4.06 µM | 13.9 µM | 16.8 | 23.1 µM | 0.534 µM | 7.53 | 17.8 µM | > 49.9 µM | 11.6 µM | 11.2 | < 0.01 µM | 0.132 | 0.09 | < 0.01 | < 0.01 | < 0.01 µM | < 0.01 | < 0.01 | < 0.0115 | 0.0232 |
| O=C1C=C(NCCc2ccccc2)c2ccccc2C1=O | 2.99 µM | 4.09 µM | 4.31 | 67.9 µM | 3.34 µM | 12.2 | 7.27 µM | 43.3 µM | 64.8 µM | 27 |  |  |  |  |  |  |  |  |  |  |
